Reference: patent publication US6087375A, “Methods of treating or preventing thromboses” (priority 1999, dated 2000)

Experiments:
[1] = target: T1, thrombin from human plasma (Homo sapiens, UniProt P00734); assay: Km-based 96-well formatted fluorogenic thrombin inhibition assay
[2] = target: T1, thrombin from human plasma; assay: Vmax-based thrombin inhibition assay (200 μM S-2238); type: biochemical; design: from tissue; host or cells: human plasma; conditions: 200 μM S-2238, 40 mU thrombin, pH 7.2, 25° C.
[3] = target: T1, thrombin from human plasma; assay: Km-based chromogenic thrombin inhibition assay (S-2238); type: biochemical; design: from tissue; host or cells: human plasma; conditions: 8 μM S-2238, 10 mU thrombin, pH 7.2, 35° C., 405 nm
Description: Specifically, a Km-based chromogenic assay was first employed. […] Measurements at 405 nm are designed to detect the thrombin-induced liberation of p-nitroaniline from the S-2238 substrate. As such, an observed increase in absorbance at 405 nm directly correlates with an increase in hydrolysis of the substrate by thrombin.

[4] = target: T1, thrombin from human plasma; assay: Km-based fluorogenic assay for inhibition of thrombin (Example 7); type: biochemical; design: from tissue; host or cells: human plasma; conditions: FIGS. 9 and 10
Experimental: Thrombin from human plasma was obtained from Enzyme System Products, Dublin, Calif., in glycerol:water 1:1, 11.4 mg/ml, 3800 U/mg, MW 36,700, and stored undiluted at -20° C. It was freshly diluted the day of use.
To dilute for the assay, 0.67 μl (25 Units) of thrombin was pipetted into 5 ml of 0.1 mg/ml BSA (from Pierce, Catalog No. 23209, BSA fraction V, a 2 mg/ml stock in saline with sodium azide), in cold PBS (GIBCO, Catalog No. 14190-136, without calcium chloride and magnesium chloride, pH 7.2) and briefly vortexed, yielding a stock of 5 mU thrombin/μl.
The substrate was N-tBOC-β-Benzyl-Asp-Pro-Arg-7-Amido4-Methylcoumarin HCl and was obtained from Sigma, Catalog No. B4028, Lot 122H0070, F.W. 770.3. Five mg was dissolved in […] DMSO for a 4 mM stock. The stock was stored in 200 μl aliquots at -20° C. in the dark.
An alternative substrate was N-tBOC-Val-Pro-Arg-7-Amido4-Methylcoumarin HCl and was obtained from Sigma, Catalog No. B-9385, Lot 53H0805, F.W. of free base 627.7. Five mg was dissolved in 1.863 ml DMSO for a 4 mM stock. The stock was stored in 200 μl aliquots at -20° C. in the dark.
The fluorescent standard was 7-Amido4-Methylcoumarin and was obtained from Aldrich, Catalog No. 25,737-0, MW 175.19. […]
Initial readings were taken to ensure exclusion of rogue wells with abnormally high backgrounds (λ excitation at 360 nm, bandwidth […], λ emission, 460 nm, bandwidth 40 nm). Then, 25 μl of a 10×stock of the putative inhibitor were added per well, mixed for 5 seconds and read kinetically for 10 minutes at ambient temperature to assess background interference and/or any increase in hydrolysis of substrate due to inhibitor.
The thrombin assay was then initiated by adding 25 μl of thrombin/well with a multichannel pipettor and mixed for 5 seconds. The appearence of the fluorescent product (free 7-amido-4-methylcoumarin released from the peptide by thrombin) was followed simultaneously in 48 wells (one reading per minute for 30 minutes, λ excitation at 360 nm, bandwidth 40 nm, λ emission, 460 nm, bandwidth 40 nm). […]

[5] = test system: anti-KLH-argatroban antibody; assay: Sandwich ELISA using polyclonal anti-KLH-argatroban antibodies; type: binding, rabbit; conditions: rabbit erythrocytes treated with argatroban-C6 free acid
Experimental: The reaction was quenched by adding hydroxylamine, pH 7.8 to a final concentration of 50 mM and incubating at room temperature for 10 minutes.
Rabbit anti-HSA monoclonal antibody (Boehringer/Mannheim, catalog no. 605001) diluted 1:5000 in PBS, pH 7.4 or mouse anti-hGPA monoclonal antibody (BioAtlan-tic/CRTS, mAb 5F4, diluted to 10 μg/ml in 0.1 M sodium acetate, pH 4.5 or mAb 3C10 diluted 1:500 or mAb 3E4 diluted 1:1000 in PBS, pH 7.4 - each antibody recognizes a different epitope of hGPA), were used to capture respective proteins by aliquotting 100 μl/well into a NUNC Maxisorp F96 plate (catalog no. 439454). The plates were incubated overnight at 4° C., were then blocked by the addition of 200 μl/well of 1% BSA/PBS and incubated at room temperature for 1 hour. The plates were then washed 5 times by submersion in PBS, pH 7.4.
Samples were incubated on the plates for 2 hours at room temperature and then were washed as above.
The plates were then incubated at room temperature for 30 minutes and washed as above.
Biotinylated goat anti-rabbit IgG (Vector, catalog no. BA1000) was diluted 1:1000 in 1% BSA/PBS, pH 7.4 and 100 μl/well added to all wells. The plates were incubated at room temperature for 30 minutes and washed as above.
Next, 100 μl/well of ABC-HRP (Vector, catalog no. PK4000) was added, each component diluted 1:500 in PBS, pH 7.4, with 0.1% TWEEN 20 and incubated 30 minutes at room temperature prior to use. The plates were then washed 10 times by submersion in PBS, pH 7.4.

Row | IC50 [1] | IC50 [2] | IC50 [3] | thrombin inhibition [4] | SMILES | plate ELISA signal [5]
1 | ~80 nM | 5000 to 8000 nM | 150 nM |  | CC1CNc2c(cccc2S(=O)(=O)NC(CCCNC(=N)N)C(=O)N2CCC(C)CC2C(=O)NCCCCCCCCCCCC(=O)O)C1 (stereo not drawn) [compound YL-015-10] | 
2 | ~50 nM |  |  | not inhibitory | CC1CNc2c(cccc2S(=O)(=O)NC(CCCN=C(N)N)C(=O)N2CCC(C)CC2C(=O)NCCCCCC(=O)O)C1 (stereo not drawn) [compound YL-015-15] | did not give a signal above background
